Non-standard residues stand in square brackets, D forms with d. Residues, ends and D or L forms follow the SMILES beside them. Aun = NCCCCCCCCCCC(=O)O
Assays:
Candida albicans SLU-1 = assay: Radial diffusion assay; assay type: cell-based; conditions: 30 mm^2 area of growth inhibition, calculated by PROBIT analysis
Protocol: In the radial diffusion assay procedures, the CA-1 cultures and derivatized peptide solutions were prepared as in the broth microdilution assay procedure described above, i.e., CA-1 was grown to exponential phase in SDB. Ten (10) mL of molten underlayer agarose comprising 3% Sabouraud Dextrose broth, 1% agarose (Pharmacia, Piscataway, N.J.), 0.02% Tween 20, and 10 mM sodium phosphate at pH 7.4, was added to polystyrene tubes and maintained in a 56° C. water bath until the addition of yeast. Tubes were cooled to approximately 45° C., yeast were added to give a final concentration of 1×10^6 CFU/mL, and the tubes were mixed again by inverting. The contents were poured into leveled, square petri dishes and distributed evenly. […] A series of wells were punched into the hardened agarose using a sterile 3 mm punch attached to a vacuum apparatus to achieve a uniform, 3 mm diameter well.
Derivatized peptide sequences to be assayed were 2-fold serially diluted in 10 mM Dulbecco's PBS (D-PBS) starting from a concentration of approximately […]. Five μL of each dilution were added to each well and the plates were incubated at 37° C. for 3 hours to allow for complete diffusion of the test compounds. An overlayer of 10 mL of molten agarose comprising 6% Sabouraud Dextrose broth, 1% agarose, and 10 mM sodium phosphate, pH 7.4, (at approximately 45° C.) was then added and plates were incubated overnight at 37° C. Following this overnight incubation, a dilute Coomassie solution was poured into the plates and allowed to stain for 24 hours to enhance visualization of the zones.
Clear zones of growth inhibition around each well were measured with calipers. The actual area of growth inhibition (mm^2) was calculated by subtracting the area of the well. Table II below sets out the results of the radial diffusion assays for a series of tested peptide-based constructs in terms of the number of picomoles (pmol) of compound required to establish a 30 mm^2 area of growth inhibition of Candida albicans SLU-1 calculated by PROBIT analysis (e.g., calculated from regression of the linear portion of log-concentration dose-response curve, log pmol/well vs. net area of inhibition).

[1] = system: Candida albicans designated CA-1, Strain SLU-1; assay type: cell-based; conditions: designated CA-1, Strain SLU-1, 24 h
Protocol: In each broth microdilution assay screening procedure, a colony of Candida albicans designated CA-1, Strain SLU-1 that was received from the laboratories of G. Matuschak and A. Lechner, St. Louis University Hospital, St. Louis, Mo., where the strain was maintained, was inoculated into a tube containing 5 mL Sabouraud Dextrose broth (2% dextrose, 1% neopeptone) and incubated at 37° C. with shaking. The overnight culture was diluted 1:50 into 5 ml of fresh broth and incubated for 3 hours at 37° C. to exponential phase growth. Organisms were pelleted by centrifugation in a Beckman J-6M centrifuge for 5 minutes at 3000 rpm (1500×g) and the pellets were resuspended in 5 mL phosphate buffered saline (PBS) and the optical density (OD) at 570 nm was determined. On the basis of the determination that one OD unit equals 3×10^7 colony forming units/mL (CFU/mL), yeast cells were diluted to 5×10^3 CFU/mL in Sabouraud Dextrose broth (SBD).
Derivatized peptide sequences based on Domain III of BPI to be screened which were originally constituted in Dulbecco's-PBS, were two-fold serially diluted in SDB starting from a concentration of 128 μg/mL. Equal volumes (100 μL) of yeast suspension as prepared above and derivatized peptide solution were added to wells of a 96-well sterile, flat bottom, non-pyrogenic tissue culture microtiter plate (Costar, Cambridge, Mass.) to reach a final volume of 200 μL/well. The plate was incubated on a shaker at 37° C. for 24 hours. All assays were performed in triplicate. Following the incubation period, plates were read in an ELISA plate reader at 595 nm wavelength to determine the minimum inhibitory concentration (MIC), i.e., the lowest concentration required to reduce the optical density at 595 nm to below 0.1 OD.

Candida albicans, SLU-1 = assay: 28-day comparative survival efficacy study in mice systemically infected with Candida albicans; assay type: in vivo, male DBA/2 mice; conditions: mice infected iv with C. albicans SLU-1; two doses less than 5 mg/kg; initial experiments (p>0.5)
Protocol: Derivatized peptide-based constructs are tested for activity upon oral administration (oral activity) in a 28-day comparative survival efficacy study in mice systemically infected with Candida albicans. Specifically, male DBA/2 mice (Charles River Laboratories) six weeks of age are dosed with 7.9×10^4 Candida albicans, SLU-1 in 100 μL intravenously via the tail vein in a single dosage on day zero (0). However, other routes of administration, including intraperitoneal (ip) and subcutaneous (sc) routes may be administered. Amphotericin B will provide complete protection at 0.5 mg/kg qod (100% survival). Mortality data will be subjected to Kaplan-Meier survival analysis. All treatment groups may be considered statistically significant vs. saline at p values <0.05.
Treatment begins immediately thereafter with 400 μL oral gavage of either 0.5% dextrose, or derivative compound in 0.5% dextrose at various dosage levels (e.g., 10 mg/kg or 20 mg/kg) according to a prescribed dosing regimen (e.g. every other day for a total of eight times). Amphotericin B (Fungizone®) is administered intravenously at 0.5 mg/kg as a positive control every other day for a total of eight times. Twice-day monitoring (once daily on weekends and holidays) for mortality is performed. The animals treated with antiflngal derivative compound show improvement in mortality compared with the dextrose-treated controls, preferably statistically significant improvement (p-value of […]).

gram-negative bacteria = conditions: broad range of gram-negative bacteria; concentrations as low as; cited from earlier work
[2] = system: Staphylococcus aureus (four strains), Staphylococcus epidermidis, Streptococcus faecalis, Bacillus subtilis, Micrococcus lysodeikticus, and Listeria …; conditions: 160 μg/ml; pH of either 7.0 or 5.5; cited from earlier work
[3] = system: Candida albicans and Candida parapsilosis; conditions: 10^−6 M; pH 7.0 or 5.5; cited from earlier work
[4] = system: human, rabbit and sheep red blood cells and several human tumor cell lines; conditions: cited from earlier work

CC[C@@H](C)[C@@H](NC(=O)[C@@H](CC(C)C)NC(=O)[C@@H](Cc1c[nH]c2ccccc12)NC(=O)[C@@H](CCCCN)NC(=O)CCCCCCCCCCN)C(=O)N[C@H](CCC(N)=O)C(=O)N[C@H](CC(C)C)C(=O)N[C@H](Cc1ccccc1)C(=O)N[C@H](Cc1c[nH]cn1)C(=O)N[C@H](CCCCN)C(=O)N[C@H](CCCCN)C(N)=O [XMP.496] (H-[Aun][dK][dW][dL][dI][dQ][dL][dF][dH][dK][dK]-NH2)
Radial Diffusion (pmol to achieve 30 mm^2 zone C. albicans SLU1) (Candida albicans SLU-1): 434 pmol
Broth Microdilution (MIC values in μg/mL C. albicans SLU1) [1]: 1 µg/mL
improvement in mortality compared with dextrose-treated controls (Candida albicans, SLU-1): did not exhibit statistically significant improvement

CC[C@@H](C)[C@@H](NC(=O)[C@@H](CC(C)C)NC(=O)[C@@H](Cc1c[nH]c2ccccc12)NC(=O)[C@@H](CCCCN)NC(=O)CCCC[C@@H]1SC[C@@H]2NC(=O)N[C@@H]21)C(=O)N[C@H](CCC(N)=O)C(=O)N[C@H](CC(C)C)C(=O)N[C@H](Cc1ccccc1)C(=O)N[C@H](Cc1c[nH]cn1)C(=O)N[C@H](CCCCN)C(=O)N[C@H](CCCCN)C(N)=O [XMP.519]
Radial Diffusion (pmol to achieve 30 mm^2 zone C. albicans SLU1) (Candida albicans SLU-1): 170 pmol
Broth Microdilution (MIC values in μg/mL C. albicans SLU1) [1]: 1 µg/mL
improvement in mortality compared with dextrose-treated controls (Candida albicans, SLU-1): did not exhibit statistically significant improvement

B1: BPI: protein isolated from the granules of mammalian polymorphonuclear leukocytes (protein, UniProt P17213 32-487, looked up)
Bactericidal …: VNPGVVVRISQKGLDYASQQGTAALQKELKRIKIPDYSDSFKIKHLGKGHYSFYSMDIREFQLPSSQISMVPNVGLKFSISNANIKISGKWKAQKRFLKMSGNFDLSIEGMSISADLKLGSNPTSGKPTITCSSCSSHINSVHVHISKSKVGWLIQLFHKKIESALRNKMNSQVCEKVTNSVSSELQPYFQTLPVMTKIDSVAGINYGLVAPPATTAETLDVQMKGEFYSENHHNPPPFAPPVMEFPAAHDRMVYLGLSDYFFNTAGLVYQEAGVLKMTLRDDMIPKESKFRLTTKFFGTFLPEVAKKFPNMKIQIHVSASTPPHLSVQPTGLTFYPAVDVQAFAVLPNSSLASLFLIGMHTTGSMEVSAESNRLVGELKLDRLLLELKHSNIGPFPVELLQDIMNYIVPILVLPRVNEKLQKGFPLPTPARVQLYNVVLQPHQNFLLFGADVVYK
concentration exhibiting anti-bacterial activity (gram-negative bacteria): 10^−8 to 10^−9 M
toxic effect on gram-positive organisms [2]: no toxic effect
toxic effect on fungi [3]: no toxic effect
toxicity to higher eukaryotic cells [4]: non-toxic
